# Test system: MPNST multicellular tumor spheroids, viability % test/control
# Test: Anticancer human tumor MPNST cell line growth inhibition;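 further: spheroids exposed to agents for seven days after three days of growth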;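 on viability, T/C: luminescence signal used as surrogate for viable cell amount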
# Settings: for IC50: curve of first compound; for viability, T/C: stronger effect = lower value
# Summary of the method: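 Complex tumor spheroids combined malignant cells with endothelial cells and mesenchymal stem cells. DNA-damaging drugs and DNA repair inhibitors were tested alone and in combination, at half-log dilutions down from clinical Cmax (top 10 microM if Cmax unknown), 0.25% DMSO final.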
# [1] = second compound 30 pM, first compound 0.0316 µM
# [2] = second compound 30 pM, first compound 0.1 µM
# [3] = second compound 30 pM, first compound 0.316 µM
# [4] = second compound 30 pM, first compound 1 µM
# [5] = second compound 30 pM, first compound 3.16 µM
# [6] = second compound 30 pM, first compound 10 µM
# [7] = second compound 94.9 pM, first compound 0.0316 µM
# [8] = second compound 94.9 pM, first compound 0.1 µM
# [9] = second compound 94.9 pM, first compound 0.316 µM
# [10] = second compound 94.9 pM, first compound 1 µM
# [11] = second compound 94.9 pM, first compound 3.16 µM
# [12] = second compound 94.9 pM, first compound 10 µM
# [13] = second compound 0.0003 µM, first compound 0.0316 µM
# [14] = second compound 0.0003 µM, first compound 0.1 µM
# [15] = second compound 0.0003 µM, first compound 0.316 µM
# [16] = second compound 0.0003 µM, first compound 1 µM
# [17] = second compound 0.0003 µM, first compound 3.16 µM
# [18] = second compound 0.0003 µM, first compound 10 µM
# [19] = second compound 0.000949 µM, first compound 0.0316 µM
# [20] = second compound 0.000949 µM, first compound 0.1 µM
# [21] = second compound 0.000949 µM, first compound 0.316 µM
# [22] = second compound 0.000949 µM, first compound 1 µM
# [23] = second compound 0.000949 µM, first compound 3.16 µM
# [24] = second compound 0.000949 µM, first compound 10 µM
# [25] = second compound 0.003 µM, first compound 0.0316 µM
# [26] = second compound 0.003 µM, first compound 0.1 µM
# [27] = second compound 0.003 µM, first compound 0.316 µM
# [28] = second compound 0.003 µM, first compound 1 µM
# [29] = second compound 0.003 µM, first compound 3.16 µM
# [30] = second compound 0.003 µM, first compound 10 µM
SMILES,IC50 (second compound 30 pM),IC50 (second compound 94.9 pM),IC50 (second compound 0.0003 µM),IC50 (second compound 0.000949 µM),IC50 (second compound 0.003 µM),"viability, T/C [1]","viability, T/C [2]","viability, T/C [3]","viability, T/C [4]","viability, T/C [5]","viability, T/C [6]","viability, T/C [7]","viability, T/C [8]","viability, T/C [9]","viability, T/C [10]","viability, T/C [11]","viability, T/C [12]","viability, T/C [13]","viability, T/C [14]","viability, T/C [15]",other results
CC(C)n1c(=O)n(C)c2cnc3cc(F)c(-c4ccc(OCCCN5CCCCC5)nc4)cc3c21 + COc1cc2c(cc1O)CCNC21CSC2c3c(OC(C)=O)c(C)c4c(c3C(COC1=O)N1C(O)C3Cc5cc(C)c(OC)c(O)c5C(C21)N3C)OCO4,> 10000 nM,> 10000 nM,> 10000 nM,< 31.6 nM,< 31.6 nM,94.6%,76.6%,79.8%,135%,110%,72.2%,72.3%,68.9%,79.3%,64.6%,63.5%,59.3%,55.8%,47.3%,61.1%,"viability, T/C [16]: 67.5%; viability, T/C [17]: 52.5%; viability, T/C [18]: 40.8%; viability, T/C [19]: 47.2%; viability, T/C [20]: 46.6%; viability, T/C [21]: 45.5%; viability, T/C [22]: 48.1%; viability, T/C [23]: 45.2%; viability, T/C [24]: 37.1%; viability, T/C [25]: 13.8%; viability, T/C [26]: 13.6%; viability, T/C [27]: 11.6%; viability, T/C [28]: 10.3%; viability, T/C [29]: 10%; viability, T/C [30]: 6.09%"
CC1COCCN1c1cc(-c2ccnn2C)c2ccnc(-c3ccn[nH]3)c2n1 (stereo not given) + COc1cc2c(cc1O)CCNC21CSC2c3c(OC(C)=O)c(C)c4c(c3C(COC1=O)N1C(O)C3Cc5cc(C)c(OC)c(O)c5C(C21)N3C)OCO4,< 31.6 nM,< 31.6 nM,< 31.6 nM,< 31.6 nM,< 31.6 nM,47.3%,48.1%,42%,39.2%,31.1%,25.6%,47.8%,44.8%,39.4%,33%,29.2%,25.6%,47.8%,44.9%,38.7%,"viability, T/C [16]: 36.9%; viability, T/C [17]: 28.8%; viability, T/C [18]: 24.6%; viability, T/C [19]: 45.4%; viability, T/C [20]: 41.2%; viability, T/C [21]: 39.4%; viability, T/C [22]: 31.3%; viability, T/C [23]: 24.2%; viability, T/C [24]: 20.7%; viability, T/C [25]: 12.2%; viability, T/C [26]: 11.1%; viability, T/C [27]: 10.5%; viability, T/C [28]: 6.65%; viability, T/C [29]: 5.18%; viability, T/C [30]: 4.99%"
COc1cc(C)[nH]c(=O)c1CN1CCc2c(Cl)cc(C(OC)C3COC3)c(Cl)c2C1=O (stereo not given) + COc1cc2c(cc1O)CCNC21CSC2c3c(OC(C)=O)c(C)c4c(c3C(COC1=O)N1C(O)C3Cc5cc(C)c(OC)c(O)c5C(C21)N3C)OCO4,> 10000 nM,> 10000 nM,> 10000 nM,< 31.6 nM,< 31.6 nM,73.7%,77.4%,74.5%,84.8%,81%,90.3%,94.7%,78.4%,86.4%,77.5%,83.2%,69.9%,79%,68.8%,91.7%,"viability, T/C [16]: 82.5%; viability, T/C [17]: 69.8%; viability, T/C [18]: 60.6%; viability, T/C [19]: 47.6%; viability, T/C [20]: 46%; viability, T/C [21]: 45.3%; viability, T/C [22]: 42.8%; viability, T/C [23]: 42.6%; viability, T/C [24]: 45.4%; viability, T/C [25]: 9.08%; viability, T/C [26]: 11.7%; viability, T/C [27]: 12.8%; viability, T/C [28]: 5.61%; viability, T/C [29]: 7.75%; viability, T/C [30]: 6.1%"
COc1ccc([C@@H](O)c2cc(-c3ncnc4cc(N5CCOCC5)ccc34)c(F)cc2Cl)nn1 + COc1cc2c(cc1O)CCNC21CSC2c3c(OC(C)=O)c(C)c4c(c3C(COC1=O)N1C(O)C3Cc5cc(C)c(OC)c(O)c5C(C21)N3C)OCO4,171 nM,531 nM,645 nM,174 nM,< 31.6 nM,97.1%,72%,24.1%,12.8%,5.82%,3.35%,113%,74.7%,70.9%,39.6%,8.1%,3.63%,89.4%,70.9%,92.8%,"viability, T/C [16]: 28.8%; viability, T/C [17]: 9.77%; viability, T/C [18]: 2.97%; viability, T/C [19]: 84.4%; viability, T/C [20]: 48.4%; viability, T/C [21]: 55.4%; viability, T/C [22]: 14.4%; viability, T/C [23]: 11.7%; viability, T/C [24]: 0.94%; viability, T/C [25]: 15.7%; viability, T/C [26]: 16.1%; viability, T/C [27]: 8.56%; viability, T/C [28]: 4.27%; viability, T/C [29]: 2.63%; viability, T/C [30]: 0.51%"

# From PubChem BioAssay AID1845205 (Molecular Pharmacology Branch, DTP, NCI, 2023)
